In patent publication US20060211724A1, “Hiv integrase inhibitors” (priority 2003, published 2006):

Target: T1, Recombinant His-tagged HIV-1 integrase (Human immunodeficiency virus type 1 group M subtype B, UniProt P12497, C1427S/F1332K)
T1 construct: Recombinant His-tagged HIV-1 integrase; His; made in house; host or cells: E. coli BL21(DE3)
Test: Enzymatic integrase assay (oligonucleotide-based DNA strand transfer, ELISA)
Type: biochemical
Procedure: Enzymatic Integrase Assay
The activity of HIV-integrase was determined using an oligonucleotide-based assay in which the DNA strand transfer by preformed complexes of integrase and processed DNA was measured by means of an enzyme-linked immunosorbent assay (ELISA) in microtiter plate format. Recombinant His-tagged HIV-1 integrase was produced in the E. coli strain BL21(DE3) from the plasmid pINSD.His.sol (available from NTH) after induction with isopropyl-β-D-thiogalactopyranoside (IPTG) according to described procedures (cfr. ref. Jenkins et al., “A soluble active mutant of HIV-1 integrase”, J. Biol. Chem. 271 ([…]), 7712-7718). HPLC-purified oligodeoxynucleotides were obtained from Proligo, and used for preparation of the viral DNA substrate and target DNA.
INb-1C is 5′-biotinylated, INT5 and INT6 are at the 3′-end labeled with FITC. INb-1C and IN-1NC correspond to the U5 end of the HIV-1 LTR. The DNA substrate for the integrase reactions was made by annealing INb-1C and IN-1NC. An equimolar mixture of INb-1C and IN-1NC was heated shortly at 95° C. in the presence of 100 mM NaCl and allowed to cool slowly to room temperature. In the same way, INT5 and INT6 were annealed to produce a target DNA molecule.
The integration strand transfer reactions were performed in the following way:
20 nM biotinylated DNA substrate INb-1C/IN-1NC was pre-incubated with 300 nM HIV-integrase at 37° C. for 5 min, to allow the cleavage reaction to occur. The candidate compounds and 50 nM target DNA INT5/INT6 were added to the reaction mix containing 20 mM Hepes pH 7.5, 25 mM NaCl, 5 mM MnCl2, 2 mM DTT, and 50 μg/ml BSA, and incubated for 2 h at 37° C. The reaction mix was transferred to streptavidin-coated plates (Exiqon), which were prewashed (three times) with 5×SSCT, and incubated for 1 h at room temperature to allow capture of the biotinylated viral DNA/target DNA complex. Plates were washed three times with 2×SSCT buffer, and anti-FITC POD-coupled antibody (Roche) was added and incubated for 1 h at room temperature to detect integrated FITC-labeled target DNA. After a final washing step with PBST (5 times), BM chemiluminescent POD-substrate (Roche) was added, and luminescence was read out.
The table below list the pIC50 values for those compounds tested in the enzymatic integrase assay. The pIC50 is expressed in Molar units and is the value according to the following formula: pIC50=−log IC50
wherein the IC50 value is the drug concentration at which 50% of the enzyme or viral activity is inhibited.

Structure (SMILES): O=C1c2c(c(O)c3ncccc3c2O)C(=O)N1CCc1ccccc1 [Compound 24, 5,9-Dihydroxy-7-phenethyl-pyrrolo[3,4-g]quinoline-6,8-dione]
- IC50: 2510 nM

Structure (SMILES): C#CCOc1c2c(c(O)c3nccnc13)C(=O)N(Cc1ccc3c(c1)OCO3)C2=O [Compound 36, 7-Benzo[1,3]dioxol-5-ylmethyl-5-hydroxy-9-prop-2-ynyloxy-pyrrolo[3,4-g]quinoxaline-6,8-dione]
- IC50: 18200 nM

Structure (SMILES): O=C1c2c(c(O)c3nccnc3c2O)C(=O)N1Cc1cccc2ccccc12 [Compound 27, 5,9-Dihydroxy-7-naphthalen-1-ylmethyl-pyrrolo[3,4-g]quinoxaline-6,8-dione]
- IC50: 1410 nM

Structure (SMILES): O=C1c2c(c(O)c3nccnc3c2O)C(=O)N1CC1CCCCC1 [Compound 26, 7-Cyclohexylmethyl-5,9-Dihydroxy-pyrrolo[3,4-g]quinoxaline-6,8-dione]
- IC50: 2190 nM

Structure (SMILES): O=C1c2c(c(O)c3[nH]cnc3c2O)C(=O)N1Cc1ccc2c(c1)OCO2 [Compound 39, 6-Benzo[1,3]dioxol-5-ylmethyl-4,8-dihydroxy-1H-1,3,6-triaza-s-indacene-5,7-dione]
- IC50: 2040 nM

Structure (SMILES): O=C1c2c(c(O)c3nccnc3c2O)C(=O)N1Cc1ccc(Oc2ccccc2)cc1 [Compound 7, 5,9-Dihydroxy-7-(4-phenoxy-benzyl)-pyrrolo[3,4-g]quinoxaline-6,8-dione]
- IC50: 4900 nM

Structure (SMILES): O=C1c2c(c(O)c3nccnc3c2O)C(=O)N1Cc1cccc(CN2C(=O)c3c(c(O)c4nccnc4c3O)C2=O)c1 [Compound 18, 7-[3-(5,9-Dihydroxy-6,8-dioxo-6,8-dihydro-pyrrolo[3,4-g]quinoxalin-7-ylmethyl)-benzyl]-5,9-dihydroxy-pyrrolo[3,4-g]quinoxaline-6,8-dione]
- IC50: 7590 nM

Structure (SMILES): O=C1c2c(c(O)c3nccnc3c2O)C(=O)N1Cc1ccc(Br)cc1 [Compound 4, 7-(4-Bromo-benzyl)-5,9-dihydroxy-pyrrolo[3,4-g]quinoxaline-6,8-dione]
- IC50: 219 nM

Structure (SMILES): O=C1c2c(c(O)c3ccccc3c2O)C(=O)N1CCc1ccccc1 [Compound 12, 4,9-Dihydroxy-2-phenethyl-benzo[f]isoindole-1,3-dione]
- IC50: > 100000 nM

Structure (SMILES): Cc1ccc2c(O)c3c(c(O)c2n1)C(=O)N(Cc1ccc2c(c1)OCO2)C3=O [Compound 20, 7-Benzo[1,3]dioxol-5-ylmethyl-5,9-dihydroxy-2-methyl-pyrrolo[3,4-g]quinoline-6,8-dione]
- IC50: 2140 nM

Structure (SMILES): O=C1c2c(c(O)c3nccnc3c2O)C(=O)N1c1ccc2c(c1)OCO2 [Compound 10, 7-Benzo[1,3]dioxol-5-yl-5,9-dihydroxy-pyrrolo[3,4-g]quinoxaline-6,8-dione]
- IC50: 10000 nM

Structure (SMILES): COc1ccc(CN2C(=O)c3c(c(O)c4nc(C)ccc4c3O)C2=O)cc1 [Compound 23, 5,9-Dihydroxy-7-(4-methoxy-benzyl)-2-methyl-pyrrolo[3,4-g]quinoline-6,8-dione]
- IC50: 1480 nM

Structure (SMILES): Cc1ccc2c(O)c3c(c(O)c2n1)C(=O)N(c1ccccc1)C3=O [Compound 30, 5,9-Dihydroxy-2-methyl-7-phenyl-pyrrolo[3,4-g]quinoline-6,8-dione]
- IC50: 24000 nM

Structure (SMILES): O=C1c2c(c(O)c3c(F)cccc3c2O)C(=O)N1Cc1ccc(F)cc1 [Compound 13, 5-Fluoro-2-(4-fluoro-benzyl)-4,9-dihydroxy-benzo[f]isoindole-1,3-dione]
- IC50: > 100000 nM

Structure (SMILES): O=C1c2c(c(O)c3ccccc3c2O)C(=O)N1Cc1ccc(F)cc1 [Compound 11, 2-(4-Fluoro-benzyl)-4,9-dihydroxy-benzo[f]isoindole-1,3-dione]
- IC50: > 100000 nM

Structure (SMILES): CC(c1ccccc1)N1C(=O)c2c(c(O)c3nccnc3c2O)C1=O (stereo not shown) [Compound 25, 5,9-Dihydroxy-7-(1-phenyl-ethyl)-pyrrolo[3,4-g]quinoxaline-6,8-dione]
- IC50: 2040 nM

Structure (SMILES): Cc1ccc(CN2C(=O)c3c(c(O)c4nccnc4c3O)C2=O)cc1 [Compound 3, 5,9-Dihydroxy-7-(4-methyl-benzyl)-pyrrolo[3,4-g]quinoxaline-6,8-dione]
- IC50: 1580 nM

Structure (SMILES): CCOC(=O)C(=O)Oc1c2c(c(O)c3nccnc13)CN(Cc1ccc3c(c1)OCO3)C2 [Compound 6, Oxalic acid 7-benzo[1,3]dioxol-5-ylmethyl-9-hydroxy-6,8-dihydro-6H-pyrrolo[3,4-g]quinoxalin-5-yl ester ethyl ester]
- pIC50 (pIC50=−log IC50, expressed in Molar units, strand transfer, 5 mM MnCl2, 2 h at 37° C.): 5.50

Structure (SMILES): Cc1ccc2c(O)c3c(c(O)c2n1)C(=O)N(Cc1ccc(F)cc1)C3=O [Compound 22, 7-(4-Fluoro-benzyl)-5,9-dihydroxy-2-methyl-pyrrolo[3,4-g]quinoline-6,8-dione]
- IC50: 398 nM

Structure (SMILES): O=C1c2c(c(O)c3c(ncn3Cc3ccccc3)c2O)C(=O)N1Cc1ccc2c(c1)OCO2 [Compound 38, 6-Benzo[1,3]dioxol-5-ylmethyl-1-benzyl-4,8-dihydroxy-1H-1,3,6-triaza-s-indacene-5,7-dione]
- IC50: 479 nM

Structure (SMILES): CC(c1ccccc1)N1C(=O)c2c(c(O)c3c(ncn3Cc3ccccc3)c2O)C1=O (stereo not shown) [Compound 40, 1-Benzyl-4,8-dihydroxy-6-(1-phenyl-ethyl)-1H-1,3,6-triaza-s-indacene-5,7-dione]
- IC50: 1120 nM

Structure (SMILES): CC(C)CCOc1c2c(c(O)c3nccnc13)C(=O)N(Cc1ccc3c(c1)OCO3)C2=O [Compound 37, 7-Benzo[1,3]dioxol-5-ylmethyl-5-hydroxy-9-(3-methyl-butoxy)-pyrrolo[3,4-g]quinoxaline-6,8-dione]
- IC50: 1480 nM

Structure (SMILES): O=C1c2c(c(O)c3nccnc3c2O)C(=O)N1Cc1ccncc1 [Compound 29, 5,9-Dihydroxy-7-pyridin-4-ylmethyl-pyrrolo[3,4-g]quinoxaline-6,8-dione]
- IC50: 6760 nM

Structure (SMILES): O=C1c2c(c(O)c3nccnc3c2O)C(=O)N1c1ccc(F)cc1 [Compound 33, 7-(4-Fluoro-phenyl)-5,9-dihydroxy-pyrrolo[3,4-g]quinoxaline-6,8-dione]
- IC50: 21900 nM

Structure (SMILES): C[C@H](c1ccccc1)N1C(=O)c2c(c(O)c3nccnc3c2O)C1=O [Compound 15, 5,9-Dihydroxy-7-(1-(R)-phenyl-ethyl)-pyrrolo[3,4-g]quinoxaline-6,8-dione]
- IC50: 1050 nM

Structure (SMILES): Cc1ccc2c(O)c3c(c(O)c2n1)C(=O)N(CCc1ccccc1)C3=O [Compound 19, 5,9-Dihydroxy-2-methyl-7-phenethyl-pyrrolo[3,4-g]quinoline-6,8-dione]
- IC50: 4170 nM

Structure (SMILES): O=C1c2c(c(O)c3ncccc3c2O)C(=O)N1Cc1ccc2c(c1)OCO2 [Compound 5, 7-Benzo[1,3]dioxol-5-ylmethyl-5,9-dihydroxy-pyrrolo[3,4-g]quinoline-6,8-dione]
- IC50: 5620 nM

Structure (SMILES): Cc1ccc2c(O)c3c(c(O)c2n1)C(=O)N(C(C)c1ccccc1)C3=O (stereo not shown) [Compound 8, 5,9-Dihydroxy-2-methyl-7-(1-phenyl-ethyl)-pyrrolo[3,4-g]quinoline-6,8-dione]
- IC50: 10700 nM

Structure (SMILES): CC(c1ccccc1)N1C(=O)c2c(c(O)c3ccccc3c2O)C1=O (stereo not shown) [Compound 42, 4,9-Dihydroxy-2-(1-phenyl-ethyl)-benzo[f]isoindole-1,3-dione]
- IC50: > 100000 nM

Structure (SMILES): O=C1c2c(c(OCc3ccccc3)c3nccnc3c2O)C(=O)N1Cc1ccc2c(c1)OCO2 [Compound 31, 7-Benzo[1,3]dioxol-5-ylmethyl-5-benzyloxy-9-hydroxy-pyrrolo[3,4-g]quinoxaline-6,8-dione]
- IC50: > 100000 nM

Structure (SMILES): O=C1c2c(c(O)c3nccnc3c2O)C(=O)N1CCc1ccccc1 [Compound 14, 5,9-Dihydroxy-7-phenethyl-pyrrolo[3,4-g]quinoxaline-6,8-dione]
- IC50: 2040 nM
